Assay results taken from US20100104659A1, “BENZOPYRANOPYRAZOLES” (priority 2006, published 2010).

What was measured:
[1] = test system: RKO human colon adenocarcinoma cells (RKOp27 subclone), proliferating; test: Alamar Blue cell viability assay, RKO p27 uninduced (proliferating); conditions: RKOp27, 72 h, read-out: −log EC50 [mol/l] RKO p27 uninduced (proliferating), anti-proliferative/cytotoxic activity (converted)
Method: (§1) The anti-proliferative/cytotoxic activity of the compounds described herein can be tested on subclones of RKO human colon adenocarcinoma cells (Schmidt et al., Oncogene 19, 2423-2429; 2000) using the Alamar Blue cell viability assay (described in O'Brien et al. Eur J Biochem 267, 5421-5426, 2000). The compounds are dissolved as 10 mM solutions in DMSO and subsequently diluted in semi-logarithmic steps. DMSO dilutions are further diluted 1:100 into Dulbecco's modified Eagle's medium (DMEM) containing 10% fetal calf serum to a final concentration twice as much as the final concentration in the test. RKO subclones are seeded into 96 well flat bottom plates at a density of 4000 cells per well in a volume of 50 μl per well. 24 hours after seeding the 50 μl each of the compound dilutions in DMEM medium are added into each well of the 96 well plate. Each compound dilution is tested as triplicates. Wells containing untreated control cells are filled with 50 μl DMEM medium containing 1% DMSO. The cells are then incubated with the substances for 72 hours at 37° C. in a humidified atmosphere containing 5% carbon dioxide. To determine the viability of the cells, 10 μl of an Alamar Blue solution (Biosource) are added and the fluorescence is measured at an extinction of 544 nm and an emission of 590 nm. For the calculation of the cell viability the emission value from untreated cells is set as 100% viability and the emission rates of treated cells are set in relation to the values of untreated cells. Viabilities are expressed as % values. The Graphpad Prism program (GraphPad Software, Inc) is used for the calculation of EC50 values for anti-proliferative/cytotoxic activity out of the obtained dose-response curves.
(§2) Each compound dilution is tested as triplicates. Wells containing untreated control cells are filled with 50 μl DMEM medium containing 1% DMSO. The cells are then incubated with the substances for 72 hours at 37° C. in a humidified atmosphere containing 5% carbon dioxide. To determine the viability of the cells, 10 μl of an Alamar Blue solution (Biosource) are added and the fluorescence is measured at an extinction of 544 nm and an emission of 590 nm. For the calculation of the cell viability the emission value from untreated cells is set as 100% viability and the emission rates of treated cells are set in relation to the values of untreated cells. Viabilities are expressed as % values. The Graphpad Prism program is used for the calculation of EC50 values out of the obtained dose-response curves. Viability is compared of proliferating cells grown in the absence of the inducer Ponasterone A, versus viability of cells arrested by the expression of ectopic p27Kip1 induced by Ponasterone A.

[2] = test system: RKO human colon adenocarcinoma cells (RKOp27 subclone), proliferating
Method: as §1, §2

Compound | EC50 [1] [µM] | melting point [°C] | −log EC50 [mol/l] RKO p27 uninduced (proliferating), anti-proliferative/cytotoxic activity [2]
CN(C(=O)N1N=C2c3cc(F)ccc3OC[C@@H]2[C@@H]1c1ccccc1)C1CCNCC1 (racemic) [Example 16, (3RS,3aRS)-8-Fluoro-3-phenyl-3a,4-dihydro-3H-chromeno[4,3-c]pyrazole-2-carboxylic acid methyl-piperidin-4-yl-amide] | ≤ 0.1 | 196 | 
CCN(C)C(=O)N1N=C2c3cc(F)ccc3OC[C@@H]2[C@@H]1c1ccccc1 (racemic) [Example 14, (3RS,3aRS)-8-Fluoro-3-phenyl-3a,4-dihydro-3H-chromeno[4,3-c]pyrazole-2-carboxylic acid ethyl-methyl-amide] | 0.1 to 1 | 133 to 137 | 
(3RS,3aRS)-8-Fluoro-3-phenyl-3a,4-dihydro-3H-chromeno[4,3-c]pyrazole-2-carboxylic acid ((R)-1-isopropyl-piperidin-3-ylmethyl)-methyl-amide and (3RS,3aRS)-8-Fluoro-3-phenyl-3a,4-dihydro-3H-chromeno[4,3-c]pyrazole-2-carboxylic acid ((S)-1-isopropyl-piperidin-3-ylmethyl)-methyl-amide [Example 26] |  |  | (proliferating) ≧7.0 mol/l
(3RS,3aRS)-8-Fluoro-3-phenyl-3a,4-dihydro-3H-chromeno[4,3-c]pyrazole-2-carboxylic acid methyl-((R)-1-methyl-piperidin-3-ylmethyl)-amide and (3RS,3aRS)-8-Fluoro-3-phenyl-3a,4-dihydro-3H-chromeno[4,3-c]pyrazole-2-carboxylic acid methyl-((S)-1-methyl-piperidin-3-ylmethyl)-amide [Example 24] |  |  | (proliferating) ≧7.0 mol/l
O=C(N(C1CCNCC1)C1CC1)N1N=C2c3cc(F)ccc3OC[C@@H]2[C@@H]1c1ccccc1 (racemic) [Example 17, (3RS,3aRS)-8-Fluoro-3-phenyl-3a,4-dihydro-3H-chromeno[4,3-c]pyrazole-2-carboxylic acid cyclopropyl-piperidin-4-yl-amide] | 0.1 to 1 | 142 | 
